According to the supplement of paper PMC10307832:

Tests used:
Assay in all cases: relative viability (nuclei count vs DMSO), 5 days (fraction); higher = more cells survive
[1] = compound: Cc1ccc(C(=O)N(CCCN)[C@@H](c2nc3cc(Cl)ccc3c(=O)n2Cc2ccccc2)C(C)C)cc1 [Ispinesib] + CC(C)C[C@H](NC(=O)[C@H](Cc1ccccc1)NC(=O)c1cnccn1)B(O)O [Bortezomib] (partner 0.002 µM)
Method in brief: (§1)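 Five library-drug doses in √10 steps were combined with a fixed anchor-drug dose, or a single drug was given alone, by pin tool to lung cancer cell lines in 1536-well plates the day after seeding. Nuclei were stained and counted after 5 days. Relative viability is the nuclei count in treated wells over that in vehicle wells, taken as the median of duplicate plates.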

[2] = compound: C[C@]1(O)C[C@@H](c2nc(-c3ccc4ccc(-c5ccccc5)nc4c3)c3c(N)nccn32)C1 [Linsitinib] + CCNC(=O)c1noc(-c2cc(C(C)C)c(O)cc2O)c1-c1ccc(CN2CCOCC2)cc1 [Luminespib] (partner 0.01 µM)
Method in brief: as §1

[3] = compound: C[C@]1(O)C[C@@H](c2nc(-c3ccc4ccc(-c5ccccc5)nc4c3)c3c(N)nccn32)C1 [Linsitinib] + NC(=O)Nc1cc(-c2cccc(F)c2)sc1C(=O)N[C@H]1CCCNC1 [AZD7762] (partner 0.2 µM)
Method in brief: as §1

[4] = compound: Cc1ccc(C(=O)N(CCCN)[C@@H](c2nc3cc(Cl)ccc3c(=O)n2Cc2ccccc2)C(C)C)cc1 [Ispinesib] + CS(=O)(=O)CCNCc1ccc(-c2ccc3ncnc(Nc4ccc(OCc5cccc(F)c5)c(Cl)c4)c3c2)o1 [Lapatinib] (partner 2 µM)
Method in brief: as §1

Cell Line | relative viability ([1]; first compound 0.001 µM) | relative viability ([1]; first compound 0.003162 µM) | relative viability ([1]; first compound 0.01 µM) | relative viability ([1]; first compound 0.03162 µM) | relative viability ([1]; first compound 0.1 µM) | relative viability ([2]; first compound 0.01 µM) | relative viability ([2]; first compound 0.03162 µM) | relative viability ([2]; first compound 0.1 µM) | relative viability ([2]; first compound 0.3162 µM) | relative viability ([2]; first compound 1 µM) | relative viability ([3]; first compound 0.01 µM) | relative viability ([3]; first compound 0.03162 µM) | relative viability ([3]; first compound 0.1 µM) | relative viability ([3]; first compound 0.3162 µM) | relative viability ([3]; first compound 1 µM) | relative viability ([4]; first compound 0.001 µM) | relative viability ([4]; first compound 0.003162 µM) | relative viability ([4]; first compound 0.01 µM) | relative viability ([4]; first compound 0.03162 µM) | relative viability ([4]; first compound 0.1 µM)
NCI-H1355 | 1.28 | 1.23 | 1.43 | 0.815 | 0.293 | 0.761 | 0.685 | 0.618 | 0.616 | 0.587 | 0.66 | 0.604 | 0.633 | 0.602 | 0.329 | 1.09 | 0.93 | 1.22 | 0.644 | 0.3
NCI-H1650 | 0.187 | 0.211 | 0.188 | 0.173 | 0.205 | 0.196 | 0.167 | 0.235 | 0.202 | 0.172 | – | – | – | – | – | 0.799 | 0.715 | 0.387 | 0.211 | 0.208
IA-LM | 1.09 | 0.814 | 0.866 | 0.0909 | 0.111 | – | – | – | – | – | – | – | – | – | – | 0.833 | 1.03 | 0.513 | 0.123 | 0.197
NCI-H1666 | 0.704 | 0.761 | 0.64 | 0.305 | 0.321 | 0.95 | 1.08 | 1.12 | 1.07 | 1.02 | 0.704 | 0.834 | 0.828 | 0.645 | 0.597 | 0.703 | 0.801 | 0.596 | 0.279 | 0.292
HCC-78 | 0.504 | 0.531 | 0.459 | 0.308 | 0.394 | – | – | – | – | – | – | 0.56 | 0.415 | 0.666 | 0.472 | 0.762 | 1.47 | 0.811 | – | 0.308
H3255 | 1 | 0.991 | 0.814 | 0.38 | 0.374 | 0.87 | 1 | 0.869 | 0.594 | 0.917 | 0.7 | 0.884 | 0.813 | 0.69 | 0.806 | 0.214 | 0.171 | 0.205 | 0.176 | 0.236
NCI-H23 | 0.977 | 1.09 | 1.6 | 0.331 | 0.241 | 0.218 | 0.207 | 0.211 | 0.219 | 0.203 | 0.239 | 0.205 | 0.215 | 0.254 | 0.23 | 0.915 | 1.16 | 1.04 | 0.245 | 0.293
NCI-H1944 | – | – | – | – | – | 0.755 | 0.793 | 0.727 | 0.637 | 0.532 | 0.469 | 0.455 | 0.547 | 0.478 | 0.266 | 0.863 | 0.799 | 1.01 | 0.528 | 0.27
NCI-H1651 | 0.934 | 1.16 | 0.926 | 0.796 | 0.712 | 0.754 | 0.903 | 0.801 | 0.621 | 0.682 | 0.221 | 0.467 | 0.429 | 0.525 | 0.447 | 0.974 | 1.02 | 1.04 | 0.234 | 0.187
